Reference: ChEMBL document CHEMBL5325403, “Benzenesulfonyl thiazoloimines as unique multitargeting antibacterial agents towards Enterococcus faecalis” (Eur J Med Chem, 2023)
Converted amounts (≈) assume the structure as drawn.

Assays:
Assay type in all cases: functional
Staphylococcus aureus [1] = assay: Antibacterial activity against methicillin-resistant Staphylococcus aureus N315 assessed as inhibition of bacterial growth by continuous dilution method
Enterococcus faecalis = assay: Antibacterial activity against Enterococcus faecalis assessed as inhibition of bacterial growth by continuous dilution method
Staphylococcus aureus [2] = assay: Antibacterial activity against Staphylococcus aureus assessed as inhibition of bacterial growth by continuous dilution method
Staphylococcus aureus [3] = assay: Antibacterial activity against Staphylococcus aureus ATCC 25923 assessed as inhibition of bacterial growth by continuous dilution method
Staphylococcus aureus [4] = assay: Antibacterial activity against Staphylococcus aureus ATCC 29213 assessed as inhibition of bacterial growth by continuous dilution method
Klebsiella pneumoniae = assay: Antibacterial activity against Klebsiella pneumoniae assessed as inhibition of bacterial growth by continuous dilution method
Escherichia coli [5] = assay: Antibacterial activity against Escherichia coli assessed as inhibition of bacterial growth by continuous dilution method
Pseudomonas aeruginosa [6] = assay: Antibacterial activity against Pseudomonas aeruginosa assessed as inhibition of bacterial growth by continuous dilution method
Acinetobacter baumannii = assay: Antibacterial activity against Acinetobacter baumannii assessed as inhibition of bacterial growth by continuous dilution method
Pseudomonas aeruginosa [7] = assay: Antibacterial activity against Pseudomonas aeruginosa ATCC 27853 assessed as inhibition of bacterial growth by continuous dilution method
Escherichia coli [8] = assay: Antibacterial activity against Escherichia coli ATCC 25922 assessed as inhibition of bacterial growth by continuous dilution method

Structure (SMILES)	MIC (Staphylococcus aureus [1])	MIC (Enterococcus faecalis)	MIC (Staphylococcus aureus [2])	MIC (Staphylococcus aureus [3])	MIC (Staphylococcus aureus [4])	MIC (Klebsiella pneumoniae)	MIC (Escherichia coli [5])	MIC (Pseudomonas aeruginosa [6])	MIC (Acinetobacter baumannii)	MIC (Pseudomonas aeruginosa [7])	MIC (Escherichia coli [8])
CCCCCCO/N=C(/CS(=O)(=O)c1ccc(NC(C)=O)cc1)c1nccs1	32 µg/mL (≈ 75.6 µM)	32 µg/mL (≈ 75.6 µM)	64 µg/mL (≈ 151 µM)	64 µg/mL (≈ 151 µM)	128 µg/mL (≈ 302 µM)	64 µg/mL (≈ 151 µM)	32 µg/mL (≈ 75.6 µM)	32 µg/mL (≈ 75.6 µM)	128 µg/mL (≈ 302 µM)	32 µg/mL (≈ 75.6 µM)	8 µg/mL (≈ 18.9 µM)
CC(=O)Nc1ccc(S(=O)(=O)C/C(=N/OCC#N)c2nccs2)cc1	64 µg/mL (≈ 169 µM)	64 µg/mL (≈ 169 µM)	64 µg/mL (≈ 169 µM)	128 µg/mL (≈ 338 µM)	64 µg/mL (≈ 169 µM)	64 µg/mL (≈ 169 µM)	32 µg/mL (≈ 84.6 µM)	128 µg/mL (≈ 338 µM)	256 µg/mL (≈ 676 µM)	64 µg/mL (≈ 169 µM)	32 µg/mL (≈ 84.6 µM)
CC(=O)Nc1ccc(S(=O)(=O)C/C(=N/OCc2ccc(Cl)cc2Cl)c2nccs2)cc1	64 µg/mL (≈ 128 µM)	64 µg/mL (≈ 128 µM)	128 µg/mL (≈ 257 µM)	128 µg/mL (≈ 257 µM)	128 µg/mL (≈ 257 µM)	64 µg/mL (≈ 128 µM)	64 µg/mL (≈ 128 µM)	64 µg/mL (≈ 128 µM)	128 µg/mL (≈ 257 µM)	32 µg/mL (≈ 64.2 µM)	16 µg/mL (≈ 32.1 µM)
CC(=O)Nc1ccc(S(=O)(=O)C/C(=N/NC(=O)c2cccnc2)c2nccs2)cc1	2 µg/mL (≈ 4.51 µM)	128 µg/mL (≈ 289 µM)	8 µg/mL (≈ 18 µM)	2 µg/mL (≈ 4.51 µM)	128 µg/mL (≈ 289 µM)	16 µg/mL (≈ 36.1 µM)	32 µg/mL (≈ 72.2 µM)	128 µg/mL (≈ 289 µM)	32 µg/mL (≈ 72.2 µM)	16 µg/mL (≈ 36.1 µM)	128 µg/mL (≈ 289 µM)
CC(=O)Nc1ccc(S(=O)(=O)C/C(=N/Nc2ccc([N+](=O)[O-])cc2[N+](=O)[O-])c2nccs2)cc1	8 µg/mL (≈ 15.9 µM)	2 µg/mL (≈ 3.96 µM)	2 µg/mL (≈ 3.96 µM)	4 µg/mL (≈ 7.93 µM)	32 µg/mL (≈ 63.4 µM)	64 µg/mL (≈ 127 µM)	64 µg/mL (≈ 127 µM)	64 µg/mL (≈ 127 µM)	4 µg/mL (≈ 7.93 µM)	32 µg/mL (≈ 63.4 µM)	4 µg/mL (≈ 7.93 µM)
CC(=O)Nc1ccc(S(=O)(=O)C/C(=N/NC(=O)c2ccncc2)c2nccs2)cc1	32 µg/mL (≈ 72.2 µM)	4 µg/mL (≈ 9.02 µM)	16 µg/mL (≈ 36.1 µM)	8 µg/mL (≈ 18 µM)	4 µg/mL (≈ 9.02 µM)	32 µg/mL (≈ 72.2 µM)	128 µg/mL (≈ 289 µM)	8 µg/mL (≈ 18 µM)	32 µg/mL (≈ 72.2 µM)	4 µg/mL (≈ 9.02 µM)	128 µg/mL (≈ 289 µM)
CCCCO/N=C(/CS(=O)(=O)c1ccc(NC(C)=O)cc1)c1nccs1	64 µg/mL (≈ 162 µM)	64 µg/mL (≈ 162 µM)	64 µg/mL (≈ 162 µM)	128 µg/mL (≈ 324 µM)	64 µg/mL (≈ 162 µM)	16 µg/mL (≈ 40.5 µM)	32 µg/mL (≈ 80.9 µM)	64 µg/mL (≈ 162 µM)	128 µg/mL (≈ 324 µM)	64 µg/mL (≈ 162 µM)	16 µg/mL (≈ 40.5 µM)
N#CCO/N=C(/CS(=O)(=O)c1ccc(N)cc1)c1nccs1	64 µg/mL (≈ 190 µM)	64 µg/mL (≈ 190 µM)	128 µg/mL (≈ 381 µM)	64 µg/mL (≈ 190 µM)	64 µg/mL (≈ 190 µM)	64 µg/mL (≈ 190 µM)	16 µg/mL (≈ 47.6 µM)	64 µg/mL (≈ 190 µM)	128 µg/mL (≈ 381 µM)	32 µg/mL (≈ 95.1 µM)	8 µg/mL (≈ 23.8 µM)
CC(=O)Nc1ccc(S(=O)(=O)/C(=C\c2ccc(F)cc2F)C(=O)c2nccs2)cc1	64 µg/mL (≈ 143 µM)	128 µg/mL (≈ 285 µM)	128 µg/mL (≈ 285 µM)	256 µg/mL (≈ 571 µM)	256 µg/mL (≈ 571 µM)	128 µg/mL (≈ 285 µM)	128 µg/mL (≈ 285 µM)	128 µg/mL (≈ 285 µM)	128 µg/mL (≈ 285 µM)	64 µg/mL (≈ 143 µM)	128 µg/mL (≈ 285 µM)
CCCCO/N=C(/CS(=O)(=O)c1ccc(N)cc1)c1nccs1	64 µg/mL (≈ 181 µM)	16 µg/mL (≈ 45.3 µM)	32 µg/mL (≈ 90.5 µM)	32 µg/mL (≈ 90.5 µM)	64 µg/mL (≈ 181 µM)	16 µg/mL (≈ 45.3 µM)	32 µg/mL (≈ 90.5 µM)	32 µg/mL (≈ 90.5 µM)	64 µg/mL (≈ 181 µM)	32 µg/mL (≈ 90.5 µM)	32 µg/mL (≈ 90.5 µM)
C=CCO/N=C(/CS(=O)(=O)c1ccc(N)cc1)c1nccs1	128 µg/mL (≈ 379 µM)	16 µg/mL (≈ 47.4 µM)	64 µg/mL (≈ 190 µM)	32 µg/mL (≈ 94.8 µM)	32 µg/mL (≈ 94.8 µM)	32 µg/mL (≈ 94.8 µM)	32 µg/mL (≈ 94.8 µM)	64 µg/mL (≈ 190 µM)	64 µg/mL (≈ 190 µM)	16 µg/mL (≈ 47.4 µM)	16 µg/mL (≈ 47.4 µM)
CC(=O)Nc1ccc(S(=O)(=O)C/C(=N/Nc2ccccc2)c2nccs2)cc1	128 µg/mL (≈ 309 µM)	128 µg/mL (≈ 309 µM)	256 µg/mL (≈ 618 µM)	256 µg/mL (≈ 618 µM)	256 µg/mL (≈ 618 µM)	256 µg/mL (≈ 618 µM)	256 µg/mL (≈ 618 µM)	256 µg/mL (≈ 618 µM)	64 µg/mL (≈ 154 µM)	256 µg/mL (≈ 618 µM)	256 µg/mL (≈ 618 µM)
CC(=O)Nc1ccc(S(=O)(=O)/C(=C\c2ccc(C#N)cc2)C(=O)c2nccs2)cc1	8 µg/mL (≈ 18.3 µM)	8 µg/mL (≈ 18.3 µM)	8 µg/mL (≈ 18.3 µM)	32 µg/mL (≈ 73.1 µM)	8 µg/mL (≈ 18.3 µM)	128 µg/mL (≈ 293 µM)	32 µg/mL (≈ 73.1 µM)	128 µg/mL (≈ 293 µM)	128 µg/mL (≈ 293 µM)	64 µg/mL (≈ 146 µM)	16 µg/mL (≈ 36.6 µM)
CC(=O)Nc1ccc(S(=O)(=O)/C(=C\c2ccc(C(F)(F)F)cc2)C(=O)c2nccs2)cc1	256 µg/mL (≈ 533 µM)	128 µg/mL (≈ 266 µM)	256 µg/mL (≈ 533 µM)	128 µg/mL (≈ 266 µM)	128 µg/mL (≈ 266 µM)	256 µg/mL (≈ 533 µM)	256 µg/mL (≈ 533 µM)	64 µg/mL (≈ 133 µM)	128 µg/mL (≈ 266 µM)	64 µg/mL (≈ 133 µM)	256 µg/mL (≈ 533 µM)
CC(=O)Nc1ccc(S(=O)(=O)C/C(=N/NC(=O)c2ccccc2)c2nccs2)cc1	256 µg/mL (≈ 579 µM)	32 µg/mL (≈ 72.3 µM)	128 µg/mL (≈ 289 µM)	32 µg/mL (≈ 72.3 µM)	256 µg/mL (≈ 579 µM)	256 µg/mL (≈ 579 µM)	16 µg/mL (≈ 36.2 µM)	128 µg/mL (≈ 289 µM)	256 µg/mL (≈ 579 µM)	4 µg/mL (≈ 9.04 µM)	64 µg/mL (≈ 145 µM)
